Values quoted from earlier work in patent US20140018386A1, “LAQUINIMOD FORMULATIONS WITHOUT ALKALIZING AGENT” (Teva Pharmaceutical Industries, Ltd., priority 2012, published 2014).

Legend:
[1] = in vivo
[2] = tested on: acute experimental autoimmune encephalomyelitis (aEAE) model; details: in vivo
[3] = tested on: various experimental inflammatory/autoimmune animal models; details: EAE, DSS colitis, NOD mice, EAN, SLE, lupus nephritis, lupus arthritis, Crohn's Disease, Rheumatoid arthritis

Oral bioavailability [1] | SMILES | Development of active MRI lesions (relapsing MS) | Effect in the aEAE model [2] | Therapeutic effect [3]
high oral bioavailability | CCN(C(=O)c1c(O)c2c(Cl)cccc2n(C)c1=O)c1ccccc1 [Laquinimod sodium] |  |  | 
 | CCN(C(=O)c1c(O)c2c(Cl)cccc2n(C)c1=O)c1ccccc1 [Laquinimod, N-ethyl-N-phenyl-1,2-dihydro-4-hydroxy-5-chloro-1-methyl-2-oxoquinoline-3-carboxamide] | can reduce development of active MRI lesions | effective | demonstrated therapeutic effect
